Assay results reported in US11673869B2, “4-oxazolidinone antimicrobial agents” (NORTH CAROLINA STATE UNIVERSITY, priority 2016, dated 2023).
Values after ≈ are worked out from the molar mass of the structure shown.

Tests used:
S. aureus = test: Broth microdilution MIC determination, S. aureus; type: cell-based, Staphylococcus aureus; details: minimum inhibitory concentration, recorded after 16 h, unit assumed
[1] = tested on: MRSA (ATCC 33591) methicillin-resistant Staphylococcus aureus; test: Broth microdilution MIC determination, MRSA; type: cell-based; details: minimum inhibitory concentration, MRSA ATCC 33591, Mueller-Hinton broth, 37° C., recorded after 16 h; unit assumed
Experimental: (§1) Broth microdilution protocol for minimum inhibition concentration (MIC) determination. Fresh Mueller-Hinton broth (MHB) ˜3 ml, was inoculated (5×10^5 CFU mL^−1) with MRSA (ATCC 33591) methicillin-resistant Staphylococcus aureus. The resulting bacterial suspension was aliquoted (1 mL) into culture tubes and test compound (10 mM DMSO stock solution) was added to reach the final concentration of the interest. Bacteria not treated with the antimicrobial compound served as the control. Rows 2-12 of a 96-well microtiter plate were filled with remaining bacterial subcultures. The samples containing test compound were aliquoted (200 μL) into the first row wells of the microtiter plate (2 wells per compound). Row 1 wells were mixed 6-8 times and 100 μL was transferred down to row 2. Row 2 wells were mixed 6-8 times, followed by a 100 μL transfer from row 2 down to row 3. The rest of the rows of the plate were serially diluted in similar fashion. The plate was covered with sealing tape for 96-well plates (ThermoFisher) and incubated under stationary conditions at 37° C. A duplicate of the plate was prepared.
(§2) MIC values for vancomycin, linezolid, and tetracycline are included in Table 1 for purposes of comparison.

A. baumannii = test: Broth microdilution MIC determination, A. baumannii; type: cell-based, Acinetobacter baumannii; details: minimum inhibitory concentration, recorded after 16 h, unit assumed
Experimental: [The procedure below names another organism; the source lists this organism under the same test.] as §1, §2

Row | Structure (SMILES) | MIC S. aureus (S. aureus) [µg/mL] | MIC MRSA [1] [µg/mL] | MIC A. baumannii (A. baumannii) [µg/mL]
1 | CCCCCCC/C(C)=C/C(=O)/C=C1\NC(=O)[C@H](CCCC)O1 [Compound 1, (S)-Lipoxazolidinone A] | 1 (≈ 3.11 µM) | 0.5 (≈ 1.56 µM) | > 50
2 | CCCCCCC/C(C)=C/C(=O)/C=C1\NC(=O)[C@@H](CCCC)O1 [Compound 2, (R)-Lipoxazolidinone A] | 4 (≈ 12.4 µM) | 1 (≈ 3.11 µM) | 
3 | CCCCCCC/C=C/C(=O)/C=C1\NC(=O)[C@H](CCCC)O1 [Compound 3, (S,E)-5-Butyl-2-((E)-2-oxoundec-3-en-1-ylidene)oxazolidin-4-one] | 0.5 (≈ 1.63 µM) | 0.125 (≈ 0.407 µM) | > 50
4 | CCCCCCCCCC(=O)/C=C1\NC(=O)[C@H](CCCC)O1 [Compound 4, (S,E)-5-Butyl-2-(2-oxoundecylidene)oxazolidin-4-one] | 2 (≈ 6.46 µM) | 0.25 (≈ 0.808 µM) | 
5 | CCCC[C@@H]1O/C(=C/C(=O)CCC)NC1=O [Compound 5, (S,E)-5-Butyl-2-(2-oxopentylidene)oxazolidin-4-one] | 16 (≈ 71 µM) | 16 (≈ 71 µM) | > 50
6 | CCCC[C@@H]1O/C(=C/C(C)=O)NC1=O [Compound 6, (S,E)-5-Butyl-2-(2-oxopropylidene)oxazolidin-4-one] | 128 (≈ 649 µM) | > 128 | 
7 | CCCCCCCCCCCCCCCC(=O)/C=C1\NC(=O)[C@H](CCCC)O1 [Compound 7, (S,E)-5-Butyl-2-(2-oxoheptadecylidene)oxazolidin-4-one] | 128 (≈ 325 µM) | 16 (≈ 40.6 µM) | 
8 | CCCCCCCCCC(=O)/C=C1\NC(=S)[C@H](CCCC)O1 [Compound 8, (S,E)-1-(5-butyl-4-thioxooxazolidin-2-ylidene)undecan-2-one] | 128 (≈ 393 µM) | 64 (≈ 197 µM) | 
9 | CCCCCCCCCC(=O)/C=C1\NC(=O)[C@H](CC(C)C)O1 [Compound 9, (S,E)-5-isobutyl-2-(2-oxoundecylidene)oxazolidin-4-one] | 0.5 (≈ 1.62 µM) | 0.0675 (≈ 0.218 µM) | > 128
10 | CCCCCCCCCC(=O)/C=C1\NC(=O)[C@H]([C@@H](C)CC)O1 [Compound 10, (S,E)-5-((S)-sec-butyl)-2-(2-oxoundecylidene)oxazolidin-4-one] | 0.5 (≈ 1.62 µM) | 0.0675 (≈ 0.218 µM) | > 128
11 | CCCCCCCCCC(=O)/C=C1\NC(=O)[C@H](C(C)C)O1 [Compound 11, (S,E)-5-isopropyl-2-(2-oxoundecylidene)oxazolidin-4-one] | 0.5 (≈ 1.69 µM) | 0.0338 (≈ 0.114 µM) | > 64
12 | CCCCCCCCCC(=O)/C=C1\NC(=O)[C@H](Cc2ccccc2)O1 [Compound 12, (S,E)-5-benzyl-2-(2-oxoundecylidene)oxazolidin-4-one] | 4 (≈ 11.6 µM) | 0.5 (≈ 1.46 µM) | 
13 | CCCCCCCCCC(=O)/C=C1\NC(=O)CO1 [Compound 13, (E)-2-(2-Oxoundecylidene)oxazolidin-4-one] | 4 (≈ 15.8 µM) | 2 (≈ 7.89 µM) | 
14 | CCCCCCCCCC(=O)/C=C1\NC(=O)[C@H](C)O1 [Compound 14, (S,E)-5-Methyl-2-(2-oxoundecylidene)oxazolidin-4-one] | 1 (≈ 3.74 µM) | 0.8 (≈ 2.99 µM) | 
15 | CCCCCCCCCC(=O)/C=C1\NC(=O)[C@H](c2ccccc2)O1 [Compound 15, (S,E)-2-(2-oxoundecylidene)-5-phenyloxazolidin-4-one] | 2 (≈ 6.07 µM) | 1 (≈ 3.04 µM) | > 128
16 | CC(C)[C@@H]1O/C(=C/C(=O)Cc2ccccc2)NC1=O [Compound 16, (S,E)-5-isopropyl-2-(2-oxo-3-phenylpropylidene)oxazolidin-4-one] |  | 2 (≈ 7.71 µM) | 
17 | CC(C)[C@@H]1O/C(=C/C(=O)C(c2ccccc2)c2ccccc2)NC1=O [Compound 17, (S,E)-5-isopropyl-2-(2-oxo-3,3-diphenylpropylidene)oxazolidin-4-one] |  | 0.5 (≈ 1.49 µM) | 
18 | COC(=O)CCCC(=O)/C=C1\NC(=O)[C@H](C(C)C)O1 [Compound 18, methyl (S,E)-6-(5-isopropyl-4-oxooxazolidin-2-ylidene)-5-oxohexanoate] |  | 32 (≈ 119 µM) | 
19 | C#CCCCCC(=O)/C=C1\NC(=O)[C@H](C(C)C)O1 [Compound 19, (S,E)-5-isopropyl-2-(2-oxooct-7-yn-1-ylidene)oxazolidin-4-one] |  | 16 (≈ 64.2 µM) | 
20 | CC(=O)/C=C1\NC(=O)[C@H](C)O1 [Compound 20, (S,E)-5-methyl-2-(2-oxopropylidene)oxazolidin-4-one] | > 128 | > 128 | 
21 | CCCCCCCCCC(=O)/C=C1\NC(=O)[C@H](C(C)(C)C)O1 [Compound 21, (S,E)-5-(tert-butyl)-2-(2-oxoundecylidene)oxazolidin-4-one] | 0.5 (≈ 1.62 µM) | 0.0675 (≈ 0.218 µM) | 
22 | CCCCCCCCCC(=O)/C=C1\NC(=O)[C@H](CC)O1 [Compound 22, (S,E)-5-ethyl-2-(2-oxoundecylidene)oxazolidin-4-one] | 2 (≈ 7.11 µM) | 1 (≈ 3.55 µM) | 
23 | CC(C)[C@@H]1O/C(=C/C(=O)Cc2ccc(-c3ccccc3)cc2)NC1=O [Compound 23, (S,E)-2-(3-([1,1′-biphenyl]-4-yl)-2-oxopropylidene)-5-isopropyloxazolidin-4-one] | 0.25 (≈ 0.745 µM) | 0.125 (≈ 0.373 µM) | 
24 | CC(C)[C@@H]1O/C(=C/C(=O)Cc2ccc(Br)cc2)NC1=O [Compound 24, (S,E)-2-(3-(4-bromophenyl)-2-oxopropylidene)-5-isopropyloxazolidin-4-one] | 1 (≈ 2.96 µM) | 0.5 (≈ 1.48 µM) | 
25 | CC(=O)NC[C@H]1CN(c2ccc(N3CCOCC3)c(F)c2)C(=O)O1 [linezolid, reference compound] | 0.5 (≈ 1.48 µM) | 1 (≈ 2.96 µM) | > 100
26 | CN(C)[C@@H]1C(O)=C(C(N)=O)C(=O)[C@@]2(O)C(O)=C3C(=O)c4c(O)cccc4[C@@](C)(O)[C@H]3C[C@@H]12 [tetracycline, reference compound] | 0.25 (≈ 0.563 µM) |  | 2 (≈ 4.5 µM)
27 | CN[C@H](CC(C)C)C(=O)N[C@H]1C(=O)N[C@@H](CC(N)=O)C(=O)N[C@H]2C(=O)N[C@H]3C(=O)N[C@H](C(=O)N[C@H](C(=O)O)c4cc(O)cc(O)c4-c4cc3ccc4O)[C@H](O)c3ccc(c(Cl)c3)Oc3cc2cc(c3O[C@@H]2O[C@H](CO)[C@@H](O)[C@H](O)[C@H]2O[C@H]2C[C@](C)(N)[C@H](O)[C@H](C)O2)Oc2ccc(cc2Cl)[C@H]1O [vancomycin, reference compound] | 1 (≈ 0.69 µM) | 1 (≈ 0.69 µM) | > 100
